Measured values taken from PubChem BioAssay AID330 (DTP/NCI, 2004).
“And” between values parts separate entries of the source, which are not always exact repeats. Equal values may be shown once. Toxic doses and inconclusive results are not listed. How the source made its calls: active means survival T/C of 150% or more; inactive means T/C below 125% in these data.

Tested on: P388 leukemia ip, CD2F1 mice, survival T/C
Test: NCI In Vivo Anticancer Drug Screen. Data for tumor model P388 Leukemia (intraperitoneal) in CD2F1 (CDF1) mice
Conditions: endpoint: median survival time, higher = longer survival
Summary of the method: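 Mice carrying the transplanted tumor received test compound or vehicle. Survival was recorded in each group, and the value is the treated-group measurement divided by that of the vehicle-treated control group.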

[1] = dose: 50.0 mg/kg/injection, schedule: Q01DX009 (ip), vehicle: Klucel (hydroxypropylcellulose) (HPC)
[2] = dose: 50.0 mg/kg/injection, schedule: Q01DX001 (ip), vehicle: Klucel (hydroxypropylcellulose) (HPC)
[3] = dose: 100.0 mg/kg/injection, schedule: Q01DX001 (ip), vehicle: Klucel (hydroxypropylcellulose) (HPC)
[4] = dose: 50.0 mg/kg/injection, schedule: Q01DX005 (ip), vehicle: Klucel (hydroxypropylcellulose) (HPC)
[5] = dose: 100.0 mg/kg/injection, schedule: Q01DX005 (ip), vehicle: Klucel (hydroxypropylcellulose) (HPC)
[6] = dose: 200.0 mg/kg/injection, schedule: Q01DX005 (ip), vehicle: Klucel (hydroxypropylcellulose) (HPC)
[7] = dose: 50.0 mg/kg/injection, schedule: Q01DX005 (ip), vehicle: saline with Tween-80
[8] = dose: 100.0 mg/kg/injection, schedule: Q01DX005 (ip), vehicle: saline with Tween-80
[9] = dose: 200.0 mg/kg/injection, schedule: Q01DX005 (ip), vehicle: saline with Tween-80
[10] = dose: 25.0 mg/kg/injection, schedule: Q04DX003 (ip), vehicle: saline with Tween-80
[11] = dose: 50.0 mg/kg/injection, schedule: Q04DX003 (ip), vehicle: saline with Tween-80
[12] = dose: 50.0 mg/kg/injection, schedule: Q01DX009 (ip), vehicle: saline with Tween-80
[13] = dose: 100.0 mg/kg/injection, schedule: Q04DX002 (ip), vehicle: Klucel (hydroxypropylcellulose) (HPC)
[14] = dose: 200.0 mg/kg/injection, schedule: Q04DX002 (ip), vehicle: Klucel (hydroxypropylcellulose) (HPC)
[15] = dose: 400.0 mg/kg/injection, schedule: Q04DX002 (ip), vehicle: Klucel (hydroxypropylcellulose) (HPC)
[16] = dose: 100.0 mg/kg/injection, schedule: Q04DX002 (ip), vehicle: saline with Tween-80

Measured: T/C

O=NN(C(=O)NCCN1CCOCC1)C1CCCCC1
inactive: dose: 25.0 mg/kg/injection, schedule: Q01DX001 (ip), vehicle: water 115 % of control | dose: 50.0 mg/kg/injection, schedule: Q01DX001 (ip), vehicle: water 100 % of control | dose: 100.0 mg/kg/injection, schedule: Q01DX001 (ip), vehicle: water 103 % of control | dose: 200.0 mg/kg/injection, schedule: Q01DX001 (ip), vehicle: water 111 % of control | dose: 400.0 mg/kg/injection, schedule: Q01DX001 (ip), vehicle: water 117 % of control

COC1OC(CS[As](C)C)C(O)C(O)C1O (stereo not given)
inactive: dose: 6.25 mg/kg/injection, schedule: Q01DX009 (ip), vehicle: Klucel (hydroxypropylcellulose) (HPC) 95 % of control | dose: 12.5 mg/kg/injection, schedule: Q01DX009 (ip), vehicle: Klucel (hydroxypropylcellulose) (HPC) 100 % of control | dose: 25.0 mg/kg/injection, schedule: Q01DX009 (ip), vehicle: Klucel (hydroxypropylcellulose) (HPC) 103 % of control | [1] 106 % of control

N#CC1C(C#N)C2(c3ccccc3)C(c3ccccc3)=NN(c3ccccc3)CC12 (stereo not given)
inactive: dose: 25.0 mg/kg/injection, schedule: Q01DX001 (ip), vehicle: Klucel (hydroxypropylcellulose) (HPC) 91 % of control | [2] 95 % of control | [3] 87 % of control

CC(C)c1ccc(C(CC(=O)c2ccccc2)C(C(=O)O)c2ccccc2)cc1 (stereo not given)
inactive: [1] 97 % of control | dose: 100.0 mg/kg/injection, schedule: Q01DX009 (ip), vehicle: Klucel (hydroxypropylcellulose) (HPC) 89 % of control | dose: 200.0 mg/kg/injection, schedule: Q01DX009 (ip), vehicle: Klucel (hydroxypropylcellulose) (HPC) 89 % of control

Cc1ccc(S(=O)(=O)NC(=O)Nc2ccccc2SC2CCc3ccccc32)cc1 (stereo not given)
inactive: [4] 105 % of control | [5] 108 % of control | [6] 102 % of control

O=C(O)Cc1cccc(=O)c(O)c1C(=O)O
inactive: [7] 98 % of control | [8] 104 % of control | [9] 96 % of control

CCn1c2ccccc2c2cc(NC(=S)NC(=O)c3ccccc3)ccc21
inactive: [7] 87 % of control | [8] 86 % of control | [9] 87 % of control

COC(/C=N/OC(C)=O)c1ccccc1 (stereo not given)
inactive: [10] 98 % of control and 99 % of control | [11] 102 % of control and 92 % of control

COc1ccc(S(=O)(=O)OCCCl)cc1
inactive: [12] 100 % of control | dose: 100.0 mg/kg/injection, schedule: Q01DX009 (ip), vehicle: saline with Tween-80 97 % of control | dose: 200.0 mg/kg/injection, schedule: Q01DX009 (ip), vehicle: saline with Tween-80 100 % of control

O=c1cc(-c2ccccc2)[nH]c(=O)[nH]1
inactive: [10] 99 % of control | [11] 101 % of control | dose: 100.0 mg/kg/injection, schedule: Q04DX003 (ip), vehicle: saline with Tween-80 107 % of control

Cc1ccc(N=Nc2c(-c3ccccc3)nn(C(=S)S)c2C)cc1
inactive: dose: 25.0 mg/kg/injection, schedule: Q04DX002 (ip), vehicle: Klucel (hydroxypropylcellulose) (HPC) 97 % of control | dose: 50.0 mg/kg/injection, schedule: Q04DX002 (ip), vehicle: Klucel (hydroxypropylcellulose) (HPC) 107 % of control | [13] 105 % of control | [14] 96 % of control | [15] 107 % of control

O=C(Nc1ccccc1C(=O)Nc1ccccc1C(=O)O)c1cccnc1
inactive: [16] 109 % of control | dose: 200.0 mg/kg/injection, schedule: Q04DX002 (ip), vehicle: saline with Tween-80 100 % of control

S=C(N/N=C\c1nc2ccccc2c2ccccc12)Nc1ccccc1
inactive: [13] 99 % of control | [14] 94 % of control | [15] 93 % of control

O=C1C=CC2(C=C1)CCCCC2
inactive: [2] 91 % of control | [3] 101 % of control

O=C1C=CC2(C=C1)CCN=C(c1cc3c(cc1Br)OCO3)O2
inactive: dose: 25.0 mg/kg/injection, schedule: Q04DX002 (ip), vehicle: saline 102 % of control | dose: 50.0 mg/kg/injection, schedule: Q04DX002 (ip), vehicle: saline 103 % of control | [16] 108 % of control | dose: 100.0 mg/kg/injection, schedule: Q04DX002 (ip), vehicle: saline 100 % of control

CC1=CC(=O)C(O)C2(C)C1CC1OC(=O)CC3C(C)C(O)C4(O)OCC13C42 (stereo not given)
inactive: dose: 5.0 mg/kg/injection, schedule: Q01DX009 (ip), vehicle: Klucel (hydroxypropylcellulose) (HPC) 107 % of control | dose: 10.0 mg/kg/injection, schedule: Q01DX009 (ip), vehicle: Klucel (hydroxypropylcellulose) (HPC) 117 % of control | dose: 20.0 mg/kg/injection, schedule: Q01DX009 (ip), vehicle: Klucel (hydroxypropylcellulose) (HPC) 123 % of control

COc1ccccc1C(=O)c1ccccc1C(=O)O
inactive: [4] 101 % of control | [5] 105 % of control | [6] 103 % of control

COP(=O)(CI)OC
inactive: dose: 50.0 mg/kg/injection, schedule: Q01DX009 (ip), vehicle: saline 102 % of control | dose: 100.0 mg/kg/injection, schedule: Q01DX009 (ip), vehicle: saline 99 % of control | dose: 200.0 mg/kg/injection, schedule: Q01DX009 (ip), vehicle: saline 107 % of control

CCC1COc2nc(=O)c(C=NCCCN(C)C)c(N)n21 (stereo not given)
inactive: dose: 60.0 mg/kg/injection, schedule: Q01DX005 (ip), vehicle: saline 100 % of control | dose: 120.0 mg/kg/injection, schedule: Q01DX005 (ip), vehicle: saline 105 % of control | dose: 240.0 mg/kg/injection, schedule: Q01DX005 (ip), vehicle: saline 99 % of control

O=C(N/N=C/c1ccccn1)c1ccccc1[O-].O=C(N/N=C/c1ccccn1)c1ccccc1[O-].[Co+2]
inactive: [4] 113 % of control | [5] 117 % of control

CN=C(N)NN=C(c1cccc(F)c1)c1cccc(F)c1
inactive: dose: 25.0 mg/kg/injection, schedule: Q04DX002 (ip), vehicle: saline with Tween-80 100 % of control | dose: 50.0 mg/kg/injection, schedule: Q04DX002 (ip), vehicle: saline with Tween-80 102 % of control | [16] 100 % of control

O=C1c2cc(Cl)ccc2-c2c(Cl)cc(Cl)cc21
inactive: dose: 12.5 mg/kg/injection, schedule: Q01DX009 (ip), vehicle: saline with Tween-80 87 % of control | dose: 25.0 mg/kg/injection, schedule: Q01DX009 (ip), vehicle: saline with Tween-80 100 % of control | [12] 100 % of control

O=P1(C(Cl)(Cl)Cl)NNP(=O)(C(Cl)(Cl)Cl)NN1 (stereo not given)
inactive: dose: 60.0 mg/kg/injection, schedule: Q01DX005 (ip), vehicle: Klucel (hydroxypropylcellulose) (HPC) 104 % of control | dose: 120.0 mg/kg/injection, schedule: Q01DX005 (ip), vehicle: Klucel (hydroxypropylcellulose) (HPC) 101 % of control | dose: 240.0 mg/kg/injection, schedule: Q01DX005 (ip), vehicle: Klucel (hydroxypropylcellulose) (HPC) 107 % of control

O=c1oc2cc(O)ccc2c2oc3ccccc3c12
inactive: dose: 6.2 mg/kg/injection, schedule: Q01DX007 (ip), vehicle: carboxymethylcellulose (CMC) 91 % of control | dose: 12.5 mg/kg/injection, schedule: Q01DX007 (ip), vehicle: carboxymethylcellulose (CMC) 91 % of control | dose: 25.0 mg/kg/injection, schedule: Q01DX007 (ip), vehicle: carboxymethylcellulose (CMC) 100 % of control

CCC(C)C1=NCCCN1 (stereo not given)
inactive: dose: 100.0 mg/kg/injection, schedule: Q01DX001 (ip), vehicle: saline 100 % of control
